Measured values published in article PMC6145841 (Biochemistry, 2018).
Square brackets hold non-standard residues; d marks the D form. Peptide text beside a SMILES is read from it.

How the values were obtained:
[1] = target: T1, ComD1 receptor (Streptococcus pneumoniae serotype 2, UniProt A0A0H2ZM50); experiment: Beta-galactosidase reporter dose response assay, group I strain D39pcomX::lacZ; format: cell-based
[2] = target: ComD2 receptor (Streptococcus pneumoniae serotype 4, UniProt A0A0H2US84); format: cell-based
[3] = target: T1, ComD1 receptor; conditions: Table 1; ref [26]; cited from earlier work

Molecule	EC50 [1] [nM]	EC50 [2] [nM]	activity against the ComD1 receptor (in words) [3]
CC[C@H](C)[C@H](NC(=O)[C@H](C)NC(=O)[C@H](C)NC(=O)[C@H](C)NC(=O)[C@H](CCCNC(=N)N)NC(=O)[C@H](CCSC)NC(=O)[C@@H](N)CCC(=O)O)C(=O)N[C@H](C(=O)N[C@@H](CC(C)C)C(=O)N[C@H](CC(=O)O)C(=O)N[C@@H](Cc1ccccc1)C(=O)N[C@@H](CC(C)C)C(=O)N[C@@H](Cc1ccccc1)C(=O)N[C@@H](C)C(=O)N[C@@H](CCCNC(=N)N)C(=O)N[C@@H](CCCCN)C(=O)N[C@@H](CCCCN)C(=O)O)[C@@H](C)CC [CSP2-I4AS5AR6Ad10L14A] (H-EMRAAAIIL[dD]FLFARKK-OH)	> 1000	87.7	
EMALSKFFRDFILQRKK [CSP1-R3A]			complete loss of activity
